In ChEMBL document CHEMBL4673380, “Novel Pyrimidinones as SHP2 Antagonists for Treating Cancer” (ACS Med Chem Lett, 2021):

Target: T1, Tyrosine-protein phosphatase non-receptor type 11 (Homo sapiens, UniProt Q06124)
T1 sequence (Q06124 whole entry): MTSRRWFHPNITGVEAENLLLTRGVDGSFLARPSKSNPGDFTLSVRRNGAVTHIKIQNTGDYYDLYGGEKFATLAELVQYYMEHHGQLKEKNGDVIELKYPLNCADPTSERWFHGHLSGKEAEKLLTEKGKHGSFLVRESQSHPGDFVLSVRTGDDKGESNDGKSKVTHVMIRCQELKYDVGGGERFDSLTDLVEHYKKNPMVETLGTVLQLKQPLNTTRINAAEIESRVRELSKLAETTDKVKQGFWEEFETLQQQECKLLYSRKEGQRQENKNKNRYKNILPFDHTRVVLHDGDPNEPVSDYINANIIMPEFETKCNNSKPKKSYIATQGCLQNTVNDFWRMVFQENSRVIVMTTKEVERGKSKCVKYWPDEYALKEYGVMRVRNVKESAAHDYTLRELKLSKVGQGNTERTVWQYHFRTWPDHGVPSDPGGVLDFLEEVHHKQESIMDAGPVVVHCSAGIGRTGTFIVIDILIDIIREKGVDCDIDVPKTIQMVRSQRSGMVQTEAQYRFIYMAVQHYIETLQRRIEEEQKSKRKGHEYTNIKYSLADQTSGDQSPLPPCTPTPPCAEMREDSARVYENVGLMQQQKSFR
Test: Antagonist activity at recombinant human N-terminal His6-tagged full length SHP2 expressed in Escherichia coli using DiFMUP as substrate measured after 60 mins in presence of IRS1-2pY peptide by fluorescence assay

`Cc1c(N2CCC3(CC2)Cc2ncccc2[C@@H]3N)nc(C)n(-c2cccc(Cl)c2Cl)c1=O` was tested, and the IC50 was 1 nM.

Target: T1, Tyrosine-protein phosphatase non-receptor type 11
Test: Antagonist activity at SHP2 in human KYSE520 cells assessed as inhibition of ERK1/2 phosphorylation incubated for 2 hrs
Format: cell-based

Compared with `Cc1c(N2CCC3(CC2)Cc2ccccc2[C@H]3N)nc(C)n(-c2ccc(F)c(Cl)c2Cl)c1=O`, `Cc1c(F)ccc(-n2c(C)nc(N3CCC4(CC3)Cc3ccccc3[C@H]4N)c(C)c2=O)c1Cl` is 1.8-fold higher in IC50: 4 nM for the first, 7 nM for the second.

Going from `Cc1c(N2CCC3(CC2)Oc2ccccc2[C@H]3N)nc(C)n(-c2cccc(Cl)c2Cl)c1=O` to `Cc1c(N2CCC3(CC2)Cc2ccccc2[C@H]3N)nc(C)n(-c2cccc(Cl)c2Cl)c1=O`, the IC50 falls from 6.6 nM to 2 nM (3.3-fold).

`Cc1nc(N2CCC3(CC2)Cc2ccccc2[C@H]3N)cc(=O)n1-c1cccc(Cl)c1Cl` and `Cc1c(N2CCC3(CC2)Cc2ncccc2[C@@H]3N)nc(C)n(-c2cccc(Cl)c2Cl)c1=O` are the same in IC50: 5 nM for the first, 5 nM for the second.
